From patent US20080247979A1, “Use of a Hydrophobic Zeolite, that Contains and Gives a Slow Release of an Active Element, for Treatment of Skin” (priority 2005, published 2008)

Experiment: free release of ethanol from loaded hydrophobic zeolite over time, with parallel evaporation of non-adsorbed ethanol
Type: physicochemical
Details: one gram ethanol not adsorbed to any hydrophobic zeolite, reduced to 0,5 grams
Method: After 12 hours, at 29 degrees C., hydrophobic zeolite Y powder has dropped approximately 70% of its ethanol.
Hydrophobic zeolite Y was loaded with 16 weight per cent ethanol and its free release of ethanol over the time at a surrounding temperature off 29 degrees C. was studied. The result appears in FIG. 1. Which also appears from FIG. 1, the hydrophobic zeolite had, after approximately 5 hours, given the half amount of its ethanol, and was still active.
In a parallel experiment evaporation of 95% ethanol, not adsorbed to any hydrophobic zeolite, was measured. One gram of this ethanol had after 8 minutes been reduced through evaporation to 0,5 grams, i e to half the amount. This is a drastic difference compared with ethanol which is adsorbed to hydrophobic zeolite. If the experiment had been executed with 99.5% ethanol instead of 95% it would presumably have been even smaller. Through the hydrophobic zeolite composition the skin is exposed to ethanol vapour during 50 times's longer time as in a normal sponging.
The mentioned hydrophobic zeolite loaded with ethanol gives a vapour that is near 100% ethanol in composition. The ethanol vapour can aggressively attack skin bacteria's in their hydrophobic environment during relatively long time.

time until reduced through evaporation to half the amount: 8 min
Structure (SMILES): CCO [95% ethanol, ethanol]
